Test results taken from the NIST ThermoML archive (doi:10.1016/j.jct.2012.04.005).
Values joined by “and” are separate entries in the source; they are usually repeats but may differ in a detail not shown here. Equal entries are not always repeated.

Settings: isochoric method

CCOCC [diethyl ether]
Liquid
Settings | mass density
416.1 K | 534.6 kg/m3
425.19 K | 517.3 kg/m3
437.14 K | 485.2 kg/m3
450.6 K | 441.5 kg/m3
450.77 K | 440.8 kg/m3
459.61 K | 394.8 kg/m3
464.79 K | 348.2 kg/m3
466.12 K | 212.6 kg/m3
466.47 K | 310.8 kg/m3
466.66 K | 233.7 kg/m3
466.75 K | 296.7 kg/m3
466.8 K | 288.3 kg/m3
466.81 K | 278.7 kg/m3
466.82 K | 275.7 kg/m3
466.83 K | 255 kg/m3 and 260.7 kg/m3
466.85 K | 261.2 kg/m3

Settings | mass density [kg/m3]
416.3 K, 1625 kPa, Liquid | 534.6
416.83 K, 1747 kPa, Liquid | 534.6
416.93 K, 1693 kPa, Liquid | 534.6
417.26 K, 1783 kPa, Liquid | 534.6
418.11 K, 2014 kPa, Liquid | 534.6
420.91 K, 2770 kPa, Liquid | 534.6
421.09 K, 2823 kPa, Liquid | 534.6
422.05 K, 3084 kPa, Liquid | 534.6
425.27 K, 1926 kPa, Liquid | 517.3
425.69 K, 4074 kPa, Liquid | 534.6
425.75 K, 2146 kPa, Liquid | 517.3
425.83 K, 2193 kPa, Liquid | 517.3
425.96 K, 4149 kPa, Liquid | 534.6
426.06 K, 2271 kPa, Liquid | 517.3
426.78 K, 2602 kPa, Liquid | 517.3
427.43 K, 4552 kPa, Liquid | 534.6
432.78 K, 5984 kPa, Liquid | 534.6
432.99 K, 6050 kPa, Liquid | 534.6
433.93 K, 6306 kPa, Liquid | 534.6
437.48 K, 2381 kPa, Liquid | 485.2
437.61 K, 2392 kPa, Liquid | 485.2
437.68 K, 2382 kPa, Liquid | 485.2
437.79 K, 2430 kPa, Liquid | 485.2
438.72 K, 2616 kPa, Liquid | 485.2
438.85 K, 7649 kPa, Liquid | 534.6
439.14 K, 7729 kPa, Liquid | 534.6
439.97 K, 7955 kPa, Liquid | 534.6
445.62 K, 3997 kPa, Liquid | 485.2
445.85 K, 4046 kPa, Liquid | 485.2
446.57 K, 4191 kPa, Liquid | 485.2
448.81 K, 10345 kPa, Liquid | 534.6
449.04 K, 10408 kPa, Liquid | 534.6
449.96 K, 10662 kPa, Liquid | 534.6
450.97 K, 2954 kPa, Liquid | 441.5
450.98 K, 2969 kPa, Liquid | 440.8
451.08 K, 2998 kPa, Liquid | 440.8
451.17 K, 3017 kPa, Liquid | 440.8
451.49 K, 3039 kPa, Liquid | 441.5
451.69 K, 3088 kPa, Liquid | 441.5
452.31 K, 3185 kPa, Liquid | 440.8
452.82 K, 3254 kPa, Liquid | 441.5
459.55 K, 6842 kPa, Liquid | 485.2
459.83 K, 6900 kPa, Liquid | 485.2
460.03 K, 3345 kPa, Liquid | 394.8
460.23 K, 3396 kPa, Liquid | 394.8
460.36 K, 3392 kPa, Liquid | 394.8
460.5 K, 13585 kPa, Liquid | 534.6
460.64 K, 7064 kPa, Liquid | 485.2
460.64 K, 13628 kPa, Liquid | 534.6
461.45 K, 3512 kPa, Liquid | 394.8
461.55 K, 13877 kPa, Liquid | 534.6
461.58 K, 4562 kPa, Liquid | 441.5
461.85 K, 4602 kPa, Liquid | 441.5
461.98 K, 4645 kPa, Liquid | 440.8
462.66 K, 4726 kPa, Liquid | 441.5
463.06 K, 4812 kPa, Liquid | 440.8
465.09 K, 3597 kPa, Liquid | 348.2
465.58 K, 3635 kPa, Liquid | 348.2
465.68 K, 3649 kPa, Liquid | 348.2
465.84 K, 3662 kPa, Liquid | 348.2
466.13 K, 3555 kPa, Gas | 212.6
466.67 K, 3560 kPa, Gas | 233.7
466.68 K, 3578 kPa, Gas | 212.6
466.76 K, 3609 kPa, Liquid | 296.7
466.85 K, 3565 kPa, Gas | 260.7
466.87 K, 3577 kPa, Liquid | 275.7
466.88 K, 3561 kPa, Liquid | 261.2
466.88 K, 3641 kPa, Liquid | 310.8
466.89 K, 3586 kPa, Gas | 255
467.09 K, 3625 kPa, Liquid | 278.8
467.09 K, 3678 kPa, Liquid | 310.8
467.29 K, 3582 kPa, Liquid | 261.2
467.29 K, 3591 kPa, Gas | 233.7
467.29 K, 3602 kPa, Liquid | 275.7
467.29 K, 3605 kPa, Gas | 255
467.39 K, 3612 kPa, Gas | 255
467.47 K, 3597 kPa, Gas | 233.7
467.49 K, 3648 kPa, Liquid | 296.7
467.5 K, 3591 kPa, Liquid | 261.2
467.57 K, 3699 kPa, Liquid | 310.8
467.62 K, 3606 kPa, Gas | 260.7
467.69 K, 3637 kPa, Liquid | 288.3
467.96 K, 3736 kPa, Liquid | 310.8
468.29 K, 3629 kPa, Gas | 233.7
468.29 K, 3662 kPa, Gas | 255
468.39 K, 3632 kPa, Liquid | 261.2
468.52 K, 3635 kPa, Gas | 212.6
468.69 K, 3669 kPa, Gas | 260.7
468.69 K, 3721 kPa, Liquid | 278.8
468.69 K, 3780 kPa, Liquid | 310.8
468.83 K, 3719 kPa, Liquid | 278.8
468.94 K, 3681 kPa, Liquid | 275.7
469.49 K, 3681 kPa, Gas | 212.6
469.89 K, 3738 kPa, Liquid | 275.7
469.89 K, 3776 kPa, Liquid | 278.8
470.22 K, 4019 kPa, Liquid | 348.2
470.71 K, 16287 kPa, Liquid | 534.6
470.75 K, 3929 kPa, Liquid | 296.7
471.09 K, 16390 kPa, Liquid | 534.6
471.25 K, 9234 kPa, Liquid | 485.2
471.29 K, 4110 kPa, Liquid | 348.2
471.59 K, 9306 kPa, Liquid | 485.2
471.69 K, 16551 kPa, Liquid | 534.6
472.29 K, 9719 kPa, Liquid | 485.2
472.58 K, 4780 kPa, Liquid | 394.8
473.16 K, 3968 kPa, Liquid | 288.3
473.49 K, 4095 kPa, Liquid | 296.7
473.49 K, 4886 kPa, Liquid | 394.8
474.18 K, 4037 kPa, Liquid | 288.3
477.4 K, 7063 kPa, Liquid | 440.8
478.46 K, 7226 kPa, Liquid | 440.8
478.97 K, 10850 kPa, Liquid | 485.2
479.25 K, 10911 kPa, Liquid | 485.2
479.29 K, 4255 kPa, Liquid | 261.2
479.79 K, 4580 kPa, Liquid | 310.8
480.04 K, 11078 kPa, Liquid | 485.2
480.08 K, 4398 kPa, Liquid | 288.3
480.2 K, 11129 kPa, Liquid | 485.2
480.44 K, 4322 kPa, Liquid | 296.7
480.44 K, 11179 kPa, Liquid | 485.2
480.83 K, 4665 kPa, Liquid | 310.8
481.03 K, 4460 kPa, Liquid | 288.3
481.43 K, 11386 kPa, Liquid | 485.2
487.13 K, 6550 kPa, Liquid | 394.8
488.12 K, 6673 kPa, Liquid | 394.8
490.82 K, 9157 kPa, Liquid | 440.8
491.84 K, 9329 kPa, Liquid | 440.8
492.58 K, 13642 kPa, Liquid | 485.2
492.82 K, 13695 kPa, Liquid | 485.2
493.6 K, 13857 kPa, Liquid | 485.2
499.04 K, 6021 kPa, Liquid | 310.8
499.15 K, 8032 kPa, Liquid | 394.8
500.02 K, 6096 kPa, Liquid | 310.8
500.21 K, 8166 kPa, Liquid | 394.8
504.02 K, 15987 kPa, Liquid | 485.2
504.28 K, 16044 kPa, Liquid | 485.2
505.05 K, 16203 kPa, Liquid | 485.2
517.61 K, 10294 kPa, Liquid | 394.8
518.47 K, 10403 kPa, Liquid | 394.8
533.2 K, 12288 kPa, Liquid | 394.8
534.36 K, 12440 kPa, Liquid | 394.8
554.38 K, 14968 kPa, Liquid | 394.8
555.38 K, 15098 kPa, Liquid | 394.8
574.32 K, 17455 kPa, Liquid | 394.8
575.32 K, 17595 kPa, Liquid | 394.8
